Experimental data as given in US9029394B2, “2-phenyl-4-quinolones as anticancer agents” (China Medical University, priority 2006, dated 2015).
Counter-ions that a name gives are not always drawn. Like-named read-outs stand apart in the source and are kept apart here.

Assays:
MCF-7 cells = test: Cell viability assay (MTT assay), MCF-7; conditions: 0.125 to 10 μM, 48 hours; dose-dependent decrease of cell viability
Experimental: (§1) Cells were seeded in a 24-well microtiter plate (2×10^4 cells/well) overnight, then treated with DMSO (Control) or various concentrations of test compounds, and incubated for 48 hours. The effect of test compounds on cell growth was examined by the MTT (3-(4,5-dimethylthiazol-2-yl)-2,5-diphenyl tetrazolium bromide) assay. Briefly, 40 μl of MTT solution (2 mg/ml, Sigma Chemical Co.) was added to each well to make a final volume of 500 μl and incubated for 1 h at 37° C. The supernatant was aspirated, and the MTT-formazan crystals formed by metabolically viable cells were dissolved in 200 μl of DMSO. Finally, the absorbance at O.D. 550 nm was detected by enzyme-linked immunosorbent assay (ELISA) reader.

CT-26 tumor cells = test: CT-26 intraperitoneal tumor model; format: in vivo, mice; conditions: for day post challenge by which all mice were dead: excipient control all dead 40 days after
Experimental: 30 male 6-week-old Balb/c mice, were purchased from the National Animal cancer and maintained in pressurized ventilated cage according to institutional regulations. CT-26 (1×10^6) cells were injected into peritoneal cavities at day 0. Animals were randomly assigned to anti-tumoral efficacy study (n=10). Seven days after tumor inoculation, oral administration of 5 and 10 mg/kg of I-1-b (QD for seven times) to the mice was carried out. The survival rate and body weight of the animals was monitored.

[1] = test system: NCI-H226 non-small cell lung cancer cell line; test: Cytotoxic activity, MTT assay, NCI-H226; format: cell-based, human; conditions: 48 h, 50% growth-inhibitory effect
Experimental: as §1

[2] = test system: A549 lung cancer cell line; test: Cytotoxic activity, MTT assay, A549; format: cell-based, human; conditions: 48 h, 50% growth-inhibitory effect
Experimental: as §1

[3] = test system: HL-60 leukemia cancer cell line; test: Cytotoxic activity, MTT assay, HL-60; format: cell-based, human; conditions: 50% growth-inhibitory effect
Experimental: as §1

[4] = test system: A498 renal cancer cell line; test: Cytotoxic activity, MTT assay, A498; format: cell-based, human; conditions: 48 h, 50% growth-inhibitory effect
Experimental: as §1

[5] = test system: Hep G2 hepatoma cancer cell line; test: Cytotoxic activity, MTT assay, Hep G2; format: cell-based, human; conditions: 48 h, 50% growth-inhibitory effect
Experimental: as §1

[6] = test system: HCT-116 colon cancer cell line; test: Cytotoxic activity, MTT assay, HCT-116; format: cell-based, human; conditions: 48 h, 50% growth-inhibitory effect, read-out: IC50 HCT116
Experimental: as §1

[7] = Homo sapiens, Table 2, HL-60 cells, 48 h, read-out: IC50

SMILES | melting point [°C] | cytotoxicity against MCF-7 cells (cell viability, MTT) (MCF-7 cells) | IC50 [3, 7] [µM] | also measured
O=P(O)(O)Oc1cc(-c2ccccc2)nc2ccccc12 (as salt: phosphate) [Compound I-4-b, 2-Phenylquinolin-4-yl-phosphate] | > 300 |  |  | 
O=P(O)(O)Oc1cc(-c2ccccc2F)nc2cc3c(cc12)OCO3 [Compound I-1-b, 2-(2′-Fluorophenyl)-6,7-methylenedioxyquinolin-4-yl-phosphate] |  | significant cytotoxicity |  | average life span prolonged by (CT-26 tumor cells; 5 mg/kg/day QD×7): 120%; day post challenge by which all mice were dead (CT-26 tumor cells; 5 mg/kg/day QD×7): ≤ 45 days; average life span prolonged by (CT-26 tumor cells; 10 mg/kg/day QD×7): 140%; day post challenge by which all mice were dead (CT-26 tumor cells; 10 mg/kg/day QD×7): ≤ 50 days; maximally tolerated dose (CT-26 tumor cells; Balb/c mice, oral, up to 10 mg/kg/day QD×7): not achieved
O=P(O)(O)Oc1cc(-c2cccc(F)c2)nc2cc3c(cc12)OCO3 [Compound I-2-b, 2-(3′-Fluorophenyl)-6,7-methylenedioxyquinolin-4-yl-phosphate] | > 300 | significant cytotoxicity |  | 
O=P(O)(O)Oc1cc(-c2ccccc2)nc2ccc(F)cc12 [Compound I-3-b, 6-Fluoro-2-phenylquinolin-4-yl-phosphate] | > 300 | significant cytotoxicity |  | 
O=P(O)(O)Oc1cc(-c2ccccc2)nc2ccccc12 [Compound I-4-b, 2-Phenylquinolin-4-yl-phosphate] |  | significant cytotoxicity |  | 
COc1ccc2nc(-c3cccc(F)c3)cc(OP(=O)(O)O)c2c1 [Compound I-5-b, 6-Methoxy-2(3-′fluorophenyl)-quinolin-4-yl-phosphate] | > 300 | significant cytotoxicity |  | 
O=c1cc(-c2ccc[se]2)[nH]c2cc3c(cc12)OCO3 [Compound I-7-d, 2-(2′-Selenophenyl)-6,7-(methylenedioxy)-4-quinolone] |  |  |  | IC50 [1]: 4.9 µM; IC50 [2]: 8.1 µM; IC50 ([3]; Table 1, 48 h, read-out: IC50 HL-60): 0.5 µM; IC50 [4]: 2700 nM; IC50 [5]: 4.1 µM; IC50 [6]: 900 nM
CCN(CC)Cc1ccc2[nH]c(-c3ccccc3)cc(=O)c2c1 [Compound I-8-e, 6-[(Diethylamino)methyl]-2-phenylquinolin-4(1H)-one] |  |  | 15 | 
CCN(CC)Cc1ccc2[nH]c(-c3ccccc3F)cc(=O)c2c1 [Compound I-9-e, 6-[(Diethylamino)methyl]-2-(2-fluorophenyl)quinolin-4(1H)-one] |  |  | 5.8 | 
CCN(CC)Cc1cccc(-c2cc(=O)c3cc(OC)ccc3[nH]2)c1 [Compound I-10-f, 2-{3-[(Diethylamino)methyl]phenyl}-6-methoxyquinolin-4(1H)-one] |  |  | > 50 | 
